Data reported in patent US20090209525A1, “ENABLING METHODS TO IDENTIFY ALLOSTERIC MODULATORS OF RECEPTOR ACTIVITY” (priority 2006, published 2009).
Positions count from the first letter of the chain named. Read-outs that look alike come from different tables or passages of the source.

How the values were obtained:
rat M1 N110A receptor = target: T1, rat M1 N110A receptor (Rattus norvegicus, UniProt P08482, N110A); assay: R-SAT functional assay, N110A mutant; assay type: cell-based; settings: for Eff (%) / Shift / EC50: Table 3; for Eff (%): maximum response, normalized; for Shift: EC50 N110A divided by EC50 wild-type
T1 construct: expressed in transfected cells; host or cells: NIH-3T3
T1 sequence (P08482 1-460 N110A): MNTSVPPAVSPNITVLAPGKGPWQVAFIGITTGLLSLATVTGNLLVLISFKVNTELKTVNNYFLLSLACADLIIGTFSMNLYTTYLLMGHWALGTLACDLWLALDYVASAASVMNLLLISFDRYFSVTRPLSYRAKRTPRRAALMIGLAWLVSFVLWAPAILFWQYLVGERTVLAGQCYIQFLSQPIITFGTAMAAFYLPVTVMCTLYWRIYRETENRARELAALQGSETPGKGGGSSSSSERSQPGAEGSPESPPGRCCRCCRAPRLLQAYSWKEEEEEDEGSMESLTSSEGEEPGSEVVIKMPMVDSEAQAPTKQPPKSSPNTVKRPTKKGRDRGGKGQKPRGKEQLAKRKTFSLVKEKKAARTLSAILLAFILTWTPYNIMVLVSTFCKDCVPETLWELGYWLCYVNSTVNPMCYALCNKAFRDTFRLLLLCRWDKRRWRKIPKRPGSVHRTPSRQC
Method: (§1) Cells are co-transfected for 18 h with DMEM containing 0.08 micrograms/ml of an expression vector for the expression of the mutant receptor and 0.3 micrograms/ml pSI-Bgal (Promega, Madison Wis.), and 0.5% v/v Polyfect (Qiagen, Valencia Calif.), as recommended by the manufacturer. On day three, the medium is replaced with DMEM containing 1% PSG, 0.5% calf serum, 2% cyto-sf3 (Kemp Biotechnologies, Frederick, Md.), and varying concentrations of the compounds to be tested. Cells are grown in a humidified atmosphere with 5% ambient CO2 for 5 days. The media is removed from the plates, and beta-galactosidase activity is measured by the addition of o-nitrophenyl -d-galactopyranoside in phosphate-buffered saline with 5% Nonidet P-40. […] The following equation is fitted to the data using GraphPad Prism software (San Diego, Calif.):
(§2) NIH-3T3 cells were grown in 96-well tissue culture plates to 70 to 80% confluence in Dulbecco's modified essential media (DMEM) supplemented with 100 units/ml penicillin, 100 micrograms/ml streptomycin, 0.3 mg/ml L-glutamine (1% PSG, GIBCO) and 10% calf serum (Sigma-Aldrich). Cells were transfected for 18 h with DMEM containing 0.08 micrograms/ml receptor DNA and 0.3 micrograms/ml pSI-Bgal (Promega, Madison Wis.), 0.5% v/v Polyfect (Qiagen, Valencia Calif.). Medium was replaced with DMEM containing 1% PSG, 0.5% calf serum, 2% cyto-sf3 (Kemp Biotechnologies, Frederick, Md.), and varying concentrations of ligand. […] Cells were grown in a humidified atmosphere with 5% ambient CO2 for 5 days. Medium was removed from the plates, and beta-galactosidase activity was measured by the addition of o-nitrophenyl -d-galactopyranoside in phosphate-buffered saline with 5% Nonidet P-40.

rat M1 Y381A receptor = target: T2, rat M1 Y381A receptor (Rattus norvegicus, UniProt P08482, Y381A); assay: R-SAT functional assay, Y381A mutant; assay type: cell-based; settings: M1 Y381A; for EC50: read-out: pEC50 (converted)
T2 construct: expressed in transfected cells; host or cells: NIH-3T3
T2 sequence (P08482 1-460 Y381A): T1 sequence (P08482 1-460 N110A) with A110N, Y381A
Method: as §1, §2
Receptor Selection and Amplification (R-SAT™) Assays: R-SAT™ functional assays were carried out as follows. NIH-3T3 cells were grown in 96-well tissue culture plates to 70 to 80% confluence in Dulbecco's modified essential media (DMEM) supplemented with 100 units/ml penicillin, 100 micrograms/ml streptomycin, 0.3 mg/ml L-glutamine (1% PSG, GIBCO) and 10% calf serum (Sigma-Aldrich). Cells were transfected for 18 h with DMEM containing 0.08 micrograms/ml receptor DNA and 0.3 micrograms/ml pSI-Bgal (Promega, Madison Wis.), 0.5% v/v Polyfect (Qiagen, Valencia Calif.). The transfected cells were frozen away. Cells were thawed and added to 96 well plates with DMEM containing 1% PSG, 0.5% calf serum, 2% cyto-sf3 (Kemp Biotechnologies, Frederick, Md.), and varying concentrations of ligand.
In an effort to further characterize monoamine modulators, we used a panel of mutant muscarininc M1 receptors to analyze the activity and potency of orthosteric modulators and various allosteric modulators at those receptors.

[1] = target: T3, CHO cell membranes expressing the muscarinic M1 receptor (Homo sapiens, UniProt P11229); assay: Equilibrium ^3H-NMS binding at 2 nM and 10 nM ^3H-NMS
T3 construct: expressed in transfected cells; host or cells: CHO
T3 sequence (P11229 1-460): T1 sequence (P08482 1-460 N110A) with V5A, A110N, S254T, S309P, K320R, G337A, V413I

[2] = target: T4, CHO-hM1 cell membranes (muscarinic M1 receptor) (Homo sapiens, UniProt P11229); assay: ^3H-NMS dissociation rate assay; assay type: binding; settings: for koff: read-out: koff of ^3H-NMS in the presence of the ligand
T4 construct: expressed in transfected cells; host or cells: CHO-hM1
T4 sequence (P11229 1-460): T1 sequence (P08482 1-460 N110A) with V5A, A110N, S254T, S309P, K320R, G337A, V413I
Method: Approximately 10 μg protein was added per well in the assay.

[3] = Table 4, maximum response relative to xanomeline
[4] = Table 10, maximum response relative to AC-42
[5] = ^3H-NMS 2 nM and 10 nM, result in words
[6] = atropine-induced dissociation, result in words

Eff (%) (rat M1 N110A receptor; N110A) | % Eff (rat M1 Y381A receptor; [3]) [%] | EC50 (rat M1 Y381A receptor; Table 4) [nM] | EC50 (rat M1 Y381A receptor; Table 10, NA = non-active) [nM] | % Eff (rat M1 Y381A receptor; [4]) [%] | koff [2] [s⁻¹] | decrease in potency relative to wild-type (rat M1 N110A receptor; R-SAT, N110A) [fold] | Shift (rat M1 N110A receptor) | EC50 (rat M1 N110A receptor; N110A) [nM] | displacement of ^3H-NMS [1, 5] | effect on dissociation rate of ^3H-NMS [2, 6] | Compound | displacement of ^3H-NMS [1] | effect on dissociation rate of ^3H-NMS [2]
38 ± 6 | 60 | 79.4 | 63.1 | 168 | 0.0015 | 30 | 43 | 631 | completely displace | significantly retarded | CCCCC1CCN(CCCN2C(=O)COc3cc(F)ccc32)CC1 [AC-260584, 4-[3-(4-Butyl-piperidin-1-yl)-propyl]-7-fluoro-4H-benzo [1,4]oxazin-3-one] | – | –
66 ± 16 | 95 | 158 | 158 | 330 | 0.00338 | – | 21 | 794 | completely displace | did not significantly retard | Clc1ccc2c(c1)N=C(N1CCNCC1)c1ccccc1N2 [NDMC, 8-chloro-11-(1-piperazinyl)-5H-dibenzo [b,e] [1,4] diazepine] | – | –

Compound | Eff (%) (rat M1 N110A receptor; N110A) | % Eff (rat M1 Y381A receptor; [3]) [%] | EC50 (rat M1 Y381A receptor; Table 4) [nM] | EC50 (rat M1 Y381A receptor; Table 10, NA = non-active) [nM] | % Eff (rat M1 Y381A receptor; [4]) [%] | koff [2] [s⁻¹] | decrease in potency relative to wild-type (rat M1 N110A receptor; R-SAT, N110A) [fold] | Shift (rat M1 N110A receptor) | EC50 (rat M1 N110A receptor; N110A) [nM] | displacement of ^3H-NMS [1, 5] | effect on dissociation rate of ^3H-NMS [2, 6] | displacement of ^3H-NMS [1] | effect on dissociation rate of ^3H-NMS [2]
CCCCC1CCN(CCCC(=O)c2ccccc2C)CC1 [AC-42, 4-n-butyl-1-[4-(2-methylphenyl)-4-oxo-1-butyl] piperidine hydrogen chloride] | 7 ± 1 | 46 | 316 | 3160 | 102 | 0.00175 | – | – | – | – | – | complete displacement of ^3H-NMS was not observed | significantly retarded
